Values after ≈ are worked out from the molar mass of the structure shown. Marks after values point to notes of the source that are not given here.
Experiments:
[1] = system: S. aureus N315 (MRSA isolate); assay: Minimum inhibitory and bactericidal concentration determination; assay type: cell-based, Staphylococcus aureus
Procedure: (§1) The 96-well plate was organized as follows. Media (100 μl) were added to all wells.

[2] = system: B. subtilis glyQS Stem I specifier loop; assay: UV-monitored thermodynamic stability measurements of stem I constructs; assay type: binding, Bacillus subtilis
Procedure: Thermodynamic parameters were derived from four UV-monitored destabilizations and four renaturations of chemically synthesized wild-type and mutant truncated B. subtilis glyQS Stem I specifier loops in the absence and presence of PKZ18 (10 mM Na2HPO4 and 10 mM KH2PO4; final pH 6.8). The absorbance was collected at 260 nm and was performed using a Varian Cary 3 UV-visible spectrophotometer equipped with a Peltier temperature control accessory. The temperature was increased at a rate of 1° C. per minute from 5 to 85° C. Absorbance data at 260 nm were collected as a function of temperature at a rate of four data points per minute. All experiments were performed simultaneously with a control cell containing buffer only. The error calculated is the error of the mean.

[3] = target: Bacillus subtilis glyQS T-box; assay: Binding to chemically synthesized truncated stem I construct; settings: truncated stem I construct of glyQS T-box
[4] = system: J774.16 murine macrophages; assay: Trypan blue cell viability counting; assay type: cell-based; settings: 48 hours
Procedure: J774.16 cells were grown in J7 medium from a fresh passage in a 1:4 dilution of 70 to 80% confluent cells. The cells were allowed to adhere in 6-well plates overnight. The medium was replaced, and drugs were added to desired concentrations in a total volume of 5 ml/well. A media control, untreated control, a killing control of Triton X-100, and a vehicle control were always included. After 48 hours treatment, medium was removed, and fresh media and Trypan blue were added 1:1 in a final volume of 400 μl. Cells, 100 to 200, from two areas of each well were counted and the data averaged and normalized against untreated cells. The vehicle control served as the 0.0-μg/ml value. At least three biological replicates were included for each drug at each concentration.

[5] = target: Bacillus subtilis tyrS T-box; assay: Binding to chemically synthesized truncated stem I construct; settings: truncated stem I construct of tyrS T-box
[6] = system: E. coli; assay: Minimum inhibitory and bactericidal concentration determination, Gram-negative control; assay type: cell-based, Escherichia coli
Procedure: as §1

[7] = system: S. aureus N315 (MRSA); assay: Antibiotic resistance frequency (fluctuation assay); assay type: cell-based, Staphylococcus aureus; settings: MRSA
From the text: Gentamicin on BHI agar was used as a control.

[8] = system: A549 human lung epithelial cells; assay: alamarBlue cell redox activity; assay type: cell-based; settings: 128 μg/ml, 48 hours
Procedure: (§2) alamarBlue was purchased (Thermo Scientific) and used according to the manufacturer's directions. In short, 50,000 cells of either A549 or J774.16 were added into a 96-well plate in 200 μl and left to adhere overnight. As a control, we used a 96-well plate with the desired drugs at 2× the final concentrations in 160 μl without adding cells. The cells' medium was removed, and 100 μl fresh medium was added, followed by 100 μl of 2× drug from the corresponding wells in the drug plate. Media were added to the drug plate to reduce the concentrations to 1×, and the cells were incubated at 37° C. for 48 or 72 hours. alamarBlue was added at 10 μl per 100 μl, and the fluorescence of both plates at 590 nm was read after overnight incubation. The drug plate fluorescence was subtracted from the cells' plate respective values, and the data were normalized to untreated cells' reading. All plates included a vehicle control used as the 0-μg/ml value for each drug tested. All concentrations were tested in triplicate and included at least three biological replicates. A media control, untreated control, a killing control, and a vehicle control were always included. The cytotoxicity of synergistic or additive MICs of PKZ18 analogs and a common antibiotic (co-MIC) on eukaryotic cells was tested on A549 cells as above, but the two plates were set up identically to the checkerboard assay so that the final concentrations tested corresponded to those tested against MRSA.

[9] = system: J774.16 murine macrophages; assay: alamarBlue cell redox activity; assay type: cell-based; settings: for cellular redox activity: 64 μg/ml
Procedure: as §2

[10] = system: S. aureus 4220
Procedure: MICs were determined essentially as previously described (Frohlich KM, Weintraub SF, Bell JT, Todd GC, Väre VYP, Schneider R, Kloos ZA, Tabe ES, Cantara WA, Stark CJ, Onwuanaibe UJ, Duffy BC, Basanta-Sanchez M, Kitchen DB, McDonough KA, Agris PF. 2019. Discovery of small-molecule antibiotics against a unique tRNA-mediated regulation of transcription in Gram-positive bacteria. ChemMedChem 14:758-769.). In short, cultures were grown overnight in the appropriate media, diluted to A620 of 0.1, grown for 3 hours, and again diluted to A620 of 0.1. Cultures were then diluted 10-fold, of which 5 μl were added to each well of the 96-well plate used for the experiment except the media control wells. The initial well inoculum was 7.5×10^5 bacteria for S. aureus and 2.5×10^5 bacteria for B. subtilis (bacterial numbers were measured by OD). The 96-well plate was organized as follows. Media (100 μl) were added to all wells. Stock solutions (100 μi) containing 2 times the highest concentration of antibiotics to be tested were loaded to column 1, with two technical repeats per drug. […] The following controls were included: vehicle control (DMSO, chloroform, ethanol, etc.), cells in plain media, and media control (no cells). The initial optical density (A620) of the 96-well plate was determined, the plate was grown for 16 to 24 hours, and at that time, the final optical densities (A620) were read. The initial reading was subtracted from the final reading, and the technical replicates were averaged. MICs of PKZ18 and analogs were compared to clinically used antibiotics such as gentamicin.

[11] = system: glyQS T-box; assay: qRT-PCR transcriptional read-through of T-box-regulated glyQS (confirmation of inhibition of T-box mechanism); assay type: cell-based, Bacillus subtilis 1A5; settings: confirmation of inhibition of T-box mechanism from qRT-PCR assay
From the text: Sample preparation of RNA and cDNA.

[12] = system: B. subtilis 168; assay: Minimum inhibitory concentration determination; assay type: cell-based, Bacillus subtilis
Procedure: as §1

[13] = system: B. subtilis 168
Procedure: Gentamicin on BHI agar was used as a control. In short, MRSA and B. subtilis were grown overnight in BHI, and 3-hour day cultures at the optical density of A620 of 0.1 were started for both organisms. The optical density after 3 hours of growth was measured; cultures were then pelleted and resuspended to give 10^11 CFU/ml by optical density. CFU of 10^11 per OD were plated in total; 100 μl of the cells were then plated on BHI agar containing either 128 μg/m1PKZ18 or 64 μg/m1PKZ18-22. Serial dilutions of the cells were plated on plain BHI agar in order to calculate the CFU/ml, which was calculated as the number of colonies found on the plates divided by the total number of bacteria plated. CFU means colony forming units, a measure of live bacteria.

[14] = system: S. aureus (ATCC 29213) biofilm; assay: MBEC-HTP biofilm model, single agents, CFU recovery; settings: range of concentrations up to 1.024 mg/mL
Procedure: An overnight culture of S. aureus (ATCC 29213) was diluted to 1×10^7 cells/mL in tryptic soy broth (TSB) supplemented with 10% human plasma (Innovative Research, Novi, Mich. USA) and added to the wells of an MBEC™-HTP Assay Biofilm Innoculator (Innovotech, Edmonton, AB, Canada). The plate was incubated overnight at 37° C. and shaken at 125 rpm. […] Control wells were without a COMPOUND OF Formula I. The treatment plate was incubated for 24 h at 37° C. after which the lid was removed, rinsed with PBS, and placed in a new 96-well plate containing TSB. The biofilm was removed from the assay lid into the recovery plate wells by sonication, a new plate cover was added, and the viability of the biofilm was determined after 24 h of incubation at 37° C. by reading the OD at 625 nm. Three independent experiments were conducted. Concentrations of interest were followed up with colony forming unit (CFU) recovery and scanning electron microscopy analysis. After conclusion of the MBEC assay, the minimum bactericidal concentration (MBC) was determined. […]
After rinsing in PBS, designated pegs were snapped off the lid using sterile tweezers and placed in 1.5 mL Eppendorf tubes containing 200 μL PBS. […] The plates were then imaged and colonies counted on a ColonyDoc-It™ Imaging station (UVP, Analytik Jena, Beverly, Mass., USA).

[15] = system: planktonic growth of Staphylococcus
Procedure: An overnight culture of S. aureus (ATCC 29213) was diluted to 1×10^7 cells/mL in tryptic soy broth (TSB) supplemented with 10% human plasma (Innovative Research, Novi, Mich. USA) and added to the wells of an MBEC™-HTP Assay Biofilm Innoculator (Innovotech, Edmonton, AB, Canada). The plate was incubated overnight at 37° C. and shaken at 125 rpm. […] Control wells were without a COMPOUND OF Formula I. The treatment plate was incubated for 24 h at 37° C. after which the lid was removed, rinsed with PBS, and placed in a new 96-well plate containing TSB. The biofilm was removed from the assay lid into the recovery plate wells by sonication, a new plate cover was added, and the viability of the biofilm was determined after 24 h of incubation at 37° C. by reading the OD at 625 nm. Three independent experiments were conducted. Concentrations of interest were followed up with colony forming unit (CFU) recovery and scanning electron microscopy analysis. After conclusion of the MBEC assay, the minimum bactericidal concentration (MBC) was determined. The MBC is the lowest concentration of an antibacterial agent required to kill a particular bacterium. The peg lid from the MBEC assay was removed from the challenge plate and 20 μL of medium from each well of the challenge plate was removed and added to a new sterile 96-well plate filled with 180 μL TSB. […]

[16] = system: PKZRSA1 (PKZ18-22-resistant MRSA); assay: MICs against PKZ18-22-resistant mutant compared to WT MRSA; assay type: cell-based, Staphylococcus aureus
Procedure: as §1

[17] = similarly sized construct with gly codon but lacking the specifier loop
[18] = wild-type truncated glyQS stem I with the specifier loop

## Cc1sc(NC(=O)C2C3CCC(C3)C2C(=O)O)nc1-c1ccc(C(C)C)cc1 (centres unmarked) [PKZ18-00]
[1]; Table 2
  MIC S. aureus N315: 64 µg/mL (≈ 161 µM)
[1]; Table 2, value in parentheses
  MBC S. aureus N315: > 256 µg/mL
[2]; [17]
  change in melting temperature ΔTm: −0.33
  free energy ΔΔG: +0.22
[2]; [18]
  change in melting temperature ΔTm: −18.52 °C
  free energy ΔΔG: +3.41 kcal mol^−1
[3]
  dissociation constant: low micromolar
[4]; 64 μg/ml
  cell viability: 76%
[4]; 128 μg/ml
  macrophage viability: 25%
[5]
  dissociation constant: low micromolar
[6]
  MIC E. coli: > 256 µg/mL
[6]; value in parentheses
  MBC E. coli: > 256 µg/mL
[7]
  resistant colonies: No PKZ18-resistant colonies were found
[8]
  redox activity: near-total reduction
[9]; 48 hours
  cellular redox activity: increased
[9]; 72 hours
  cellular redox activity: decreased
[9]; 128 μg/ml, 48 hours
  redox activity: near-total reduction
[10]; S. aureus 4220
  fold lower MIC in minimal versus rich media: 4 fold
[10]; S. aureus 4220, minimal media
  MIC against S. aureus in minimal media: 16^a μg/ml
[10]; S. aureus 4220, rich media
  MIC against S. aureus in rich media: 64^a μg/ml
[11]; Table 1
  T-Box targeting: Yes
[11]; Table 2
  T-Box targeting: Yes
[12]; B. subtilis 168
  fold lower MIC in minimal versus rich media: 8 fold
[12]; minimal media
  MIC against B. subtilis 168 in minimal media: 8 µg/mL (≈ 20.1 µM)
[12]; rich media
  MIC against B. subtilis 168 in rich media: 64 µg/mL (≈ 161 µM)
[13]
  resistant colonies: did not generate resistant colonies

## CN[C@H](CC(C)C)C(=O)N[C@H]1C(=O)N[C@@H](CC(N)=O)C(=O)N[C@H]2C(=O)N[C@H]3C(=O)N[C@H](C(=O)N[C@H](C(=O)O)c4cc(O)cc(O)c4-c4cc3ccc4O)[C@H](O)c3ccc(c(Cl)c3)Oc3cc2cc(c3O[C@@H]2O[C@H](CO)[C@@H](O)[C@H](O)[C@H]2O[C@H]2C[C@](C)(N)[C@H](O)[C@H](C)O2)Oc2ccc(cc2Cl)[C@H]1O [vancomycin]
[14]
  MBEC efficacy at highest concentration: not effective
[15]
  planktonic growth over a range of concentrations: no growth
[16]
  fold increase in MIC against PKZRSA1 compared to WT: 2 fold

— US11617741B1, “Method for inhibiting growth of bacteria” (priority 2021, dated 2023)
